From PubChem BioAssay (NCI) come the findings set out here.

Some test systems named below: HCC-2998 colon; DU-145 prostate; SR leukemia; HOP-92 NSCLC; U251 CNS; HS 578T breast; EKVX NSCLC; K-562 leukemia; SW-620 colon; MALME-3M melanoma; TK-10 renal; SN12C renal; SK-OV-3 ovarian; MOLT-4 leukemia; MCF7 breast.
Holding throughout (experiment): NCI tumour cell line growth inhibition, 48 h

The structures appear in SMILES notation.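 1) Cells in 96-well plates. 2) Compound, 48 h, 5 concentrations. 3) Linear interpolation between surrounding doses. 4) Unreached endpoint = highest concentration. TGI: total growth inhibition.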 A value given as a limit tells only on which side of the number the result lay.

Turning to `Cc1cc(N2CCOCC2)nc2ccc(Cc3ccc4nc(N5CCOCC5)cc(C)c4c3)cc12`, the TGI was 34.7 µM in the assay with HCC-2998 colon; more than 100 µM in the assay on DU-145 prostate; more than 100 µM with SR leukemia; more than 100 µM with HOP-92 NSCLC; 88.5 µM in the assay on U251 CNS; more than 100 µM in the assay with HS 578T breast. Moreover, the TGI with EKVX NSCLC, in the assay with K-562 leukemia, in the assay with SW-620 colon, in the assay with MALME-3M melanoma, with TK-10 renal and in the assay on SN12C renal was more than 100 µM in each case. For the same molecule, the TGI with SK-OV-3 ovarian, in the assay on MOLT-4 leukemia and in the assay with MCF7 breast was more than 100 µM throughout.

On to `CCN(CC)C1Oc2cc3c(cc2C(c2cc(OC)c(O)c(OC)c2)C1C)OCO3` (stereo not given), for which the TGI in the assay on HCC-2998 colon was 21.4 µM; in the assay on DU-145 prostate it was more than 89.3 µM; in the assay on SR leukemia it was 32.7 µM; with HOP-92 NSCLC, 77.9 µM; in the assay with U251 CNS it was 26.6 µM; in the assay on HS 578T breast, 50.9 µM. The TGI is more than 75.6 µM in the assay with EKVX NSCLC; 17.4 µM in the assay on K-562 leukemia; 20.9 µM with SW-620 colon; 30 µM in the assay on MALME-3M melanoma; 72.5 µM with TK-10 renal; 36.7 µM with SN12C renal. Moreover, the TGI with SK-OV-3 ovarian worked out at 66.3 µM; in the assay on MOLT-4 leukemia, 27.2 µM; with MCF7 breast, 27.3 µM.

With `Cn1c(=O)c2ccccc2[n+]2c(-c3cccc([N+](=O)[O-])c3)csc12`, the TGI in the assay with HCC-2998 colon was more than 100 µM; with DU-145 prostate, more than 100 µM; with SR leukemia, 71.5 µM; in the assay on HOP-92 NSCLC, more than 100 µM; with U251 CNS it was more than 100 µM; in the assay with HS 578T breast, 83.3 µM. Besides, the TGI in the assay with EKVX NSCLC, with K-562 leukemia, in the assay on SW-620 colon, in the assay with MALME-3M melanoma, with TK-10 renal and with SN12C renal was more than 100 µM in each case. In addition, the TGI with SK-OV-3 ovarian, with MOLT-4 leukemia and in the assay with MCF7 breast was more than 100 µM in each case.

`CC(=O)OCC1(C)C(O)CCC2(C)C1CCC1CC3CC12CCC3(O)CO` (stereo not given): the TGI in the assay on HCC-2998 colon is more than 100 µM; with DU-145 prostate, more than 100 µM; in the assay with SR leukemia it was more than 29.4 µM; in the assay with HOP-92 NSCLC, more than 100 µM; in the assay on U251 CNS, more than 100 µM; with HS 578T breast it was more than 100 µM. Also, the TGI in the assay on EKVX NSCLC, with K-562 leukemia, with SW-620 colon, in the assay with MALME-3M melanoma, with TK-10 renal and with SN12C renal was more than 100 µM each time. Further, the TGI in the assay with SK-OV-3 ovarian, in the assay with MOLT-4 leukemia and in the assay with MCF7 breast was more than 100 µM throughout.

On to `CC(=O)Nc1cc(Cl)cc(Cl)c1O`, for which the TGI with HCC-2998 colon, in the assay on DU-145 prostate, with SR leukemia, with HOP-92 NSCLC, in the assay on U251 CNS and with HS 578T breast was more than 100 µM in each case. The TGI with EKVX NSCLC, in the assay with K-562 leukemia, in the assay on SW-620 colon, with MALME-3M melanoma, in the assay on TK-10 renal and in the assay on SN12C renal was more than 100 µM in each case. In addition, the TGI in the assay on SK-OV-3 ovarian, in the assay on MOLT-4 leukemia and with MCF7 breast was more than 100 µM throughout.

For the molecule `O=S1SC(=S)C2C=CC=NC21` (stereo not given), the TGI in the assay on HCC-2998 colon worked out at 28.8 µM; in the assay with DU-145 prostate, 31.4 µM; with SR leukemia, 77.7 µM; in the assay on HOP-92 NSCLC it was 37.6 µM; in the assay on U251 CNS, 35.1 µM; in the assay on HS 578T breast, 61.4 µM. For the same molecule, the TGI in the assay on EKVX NSCLC is 26.1 µM; with K-562 leukemia it was more than 100 µM; in the assay with SW-620 colon it was more than 100 µM; in the assay with MALME-3M melanoma it was 36.3 µM; with TK-10 renal, 32.2 µM; in the assay on SN12C renal it was 28.8 µM. Besides, the TGI with SK-OV-3 ovarian is more than 100 µM; in the assay on MOLT-4 leukemia, 64.9 µM; in the assay with MCF7 breast it was 38.4 µM.

Take `c1ccc2sc(SSSc3nc4ccccc4s3)nc2c1`: the TGI with HCC-2998 colon, in the assay with DU-145 prostate, in the assay with SR leukemia, with HOP-92 NSCLC, in the assay with U251 CNS and with HS 578T breast was more than 100 µM throughout. Further, the TGI with EKVX NSCLC, in the assay on K-562 leukemia, in the assay on SW-620 colon, in the assay with MALME-3M melanoma, in the assay on TK-10 renal and in the assay on SN12C renal was more than 100 µM throughout. Further, the TGI with SK-OV-3 ovarian, with MOLT-4 leukemia and with MCF7 breast was more than 100 µM throughout.

For the molecule `CC(C)(C)OC(=O)N(O)[C@@H]1CC[C@H](n2cnc3c(N)ncnc32)C1`, the TGI in the assay with HCC-2998 colon, in the assay on DU-145 prostate, in the assay on SR leukemia, in the assay on HOP-92 NSCLC, with U251 CNS and with HS 578T breast was more than 100 µM each time. Also, the TGI in the assay with EKVX NSCLC, in the assay with K-562 leukemia, in the assay with SW-620 colon, in the assay on MALME-3M melanoma, in the assay on TK-10 renal and in the assay on SN12C renal was more than 100 µM throughout. Moreover, the TGI with SK-OV-3 ovarian, with MOLT-4 leukemia and in the assay with MCF7 breast was more than 100 µM each time.
